Assay: Stability of the solid state form under stress conditions (high temperature and relative humidity)
Type: physicochemical
Settings: stressed conditions, e.g. high temperature and relative humidity; solid to solid phase / polymorph transformation
Excerpt: Pharmaceutical molecules may display solid to solid phase transformations and transformations between polymorphs; which may detected by exposure of the solid state form to stress conditions of e.g., high temperature and high relative humidity.

Compound	thermodynamic and chemical stability of the solid state form
CCc1cc(/C(C)=N/OCc2ccc(C3CCCCC3)c(C(F)(F)F)c2)ccc1CN1CC(C(=O)O)C1.CCc1cc(/C(C)=N/OCc2ccc(C3CCCCC3)c(C(F)(F)F)c2)ccc1CN1CC(C(=O)O)C1.O=C(O)/C=C/C(=O)O [Crystalline Siponimod fumaric acid]	thermodynamically stable and steady under stressed conditions
CCc1cc(/C(C)=N/OCc2ccc(C3CCCCC3)c(C(F)(F)F)c2)ccc1CN1CC(C(=O)O)C1.CCc1cc(/C(C)=N/OCc2ccc(C3CCCCC3)c(C(F)(F)F)c2)ccc1CN1CC(C(=O)O)C1.O=C(O)/C=C/C(=O)O [crystalline Form 7 of Siponimod fumaric acid]	thermodynamically and chemical stable
